From article PMC3463507 (ChemMedChem, 2012) come the findings set out here.

SMILES strings stand for the structures. Read-outs that look alike come from different tables or passages of the source.

A word on the IC50: it is the concentration that gives 50% inhibition. Read a high IC50 as weaker potency in that assay. By inhibition is commonly meant the percentage by which the read-out fell short of the control. For orientation: Kd means the constant that tells how readily two partners part at equilibrium.

In experiment [1] the target is T1, BaDHPS (Bacillus anthracis, UniProt Q81VW8). In words: biochemical. As to conditions: for inhibition at 250 µM: read-out: Enzyme Inhibition Activity% @250μM. In kind it is biochemical.
T1 sequence (Q81VW8 1-280): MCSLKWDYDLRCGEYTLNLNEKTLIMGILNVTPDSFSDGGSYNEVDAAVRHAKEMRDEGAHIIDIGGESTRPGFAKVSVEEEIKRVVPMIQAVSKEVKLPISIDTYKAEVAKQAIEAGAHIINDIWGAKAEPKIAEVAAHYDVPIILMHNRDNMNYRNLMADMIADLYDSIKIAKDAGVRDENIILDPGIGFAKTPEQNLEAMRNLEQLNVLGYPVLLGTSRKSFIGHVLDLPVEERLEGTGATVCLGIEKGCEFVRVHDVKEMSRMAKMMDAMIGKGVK
For experiment [2], the target named is T1, BaDHPS. Description: biochemical. In kind it is binding. As to conditions: for SPR kd: 25 °C; for kon: read-out: SPR ka.
In experiment [3] the target is T1, BaDHPS. The class given is binding. As to conditions: 25 °C, pH 7.6.

Take `Cn1nc(C(=O)O)c(=O)c2c(=O)[nH]c(N)nc21` [Compound 5, 7-Amino-1-methyl-4,5-dioxo-1,4,5,6-tetrahydropyrimido[4,5-c]pyridazine-3-carboxylic acid]: at BaDHPS [1], the IC50 entry is “no detectable IC50 value” and the inhibition at 250 µM was found to be 32.4%.
Turning to `Cn1nc(CC(=O)O)c(=O)c2c(=O)[nH]c(N)nc21` [Compound 16, 2-(7-Amino-1-methyl-4,5-dioxo-1,4,5,6-tetrahydropyrimido[4,5-c]pyridazin-3-yl)acetic acid], at BaDHPS [1], the midpoint of inhibition, the IC50, lay at 32000 nM and the inhibition at 250 µM was 96%. Further, at BaDHPS [2], the SPR kd was 6.94(6) × 10^−2 s^−1 and the kon turned out to be 342000 M⁻¹ s⁻¹. The Kd on BaDHPS [2] (SPR KD) is 203 nM. The compound also gave a Kd at BaDHPS [2] (SPR KD(eq)) of 190 nM.
`CC(CC(=O)O)c1nn(C)c2nc(N)[nH]c(=O)c2c1=O` (stereo not shown) [Compound 17, 3-(7-Amino-1-methyl-4,5-dioxo-1,4,5,6-tetrahydropyrimido[4,5-c]pyridazin-3-yl)butanoic acid]: on BaDHPS [1], the IC50 came out at 145000 nM and the inhibition at 250 µM is 52.5%.
`Cn1nc(CCC(=O)O)c(=O)c2c(=O)[nH]c(N)nc21` [Compound 18, 3-(7-Amino-1-methyl-4,5-dioxo-1,4,5,6-tetrahydropyrimido[4,5-c]pyridazin-3-yl)propanoic acid]: the inhibition at 250 µM on BaDHPS [1] worked out at 65%.
Turning to `CC(C(=O)O)c1n[nH]c2nc(N)[nH]c(=O)c2c1=O` (stereo not shown) [Compound 19, 2-(7-Amino-4,5-dioxo-1,4,5,6-tetrahydropyrimido[4,5-c]pyridazin-3-yl)propanoic acid], the inhibition at 250 µM at BaDHPS [1] worked out at 95.3%. Further, at BaDHPS [3], the “ITC N (stoichiometry of the interaction)” value was found to be 0.9, the “ITC ΔG” value was -9.65 kcal/mol, the “ITC ΔH” value was -8.7 kcal/mol and the “ITC −TΔS” value is -0.95 kcal/mol. Further, on BaDHPS [2], the SPR kd is 4.39(3) × 10^−2 s^−1 and the kon is 366000 M⁻¹ s⁻¹. The same compound returned a Kd at BaDHPS [2] (SPR KD) of 120 nM. In addition, on BaDHPS [2] (SPR KD(eq)), the Kd is 123 nM.
As to `COC(=O)CCc1n[nH]c2nc(N)[nH]c(=O)c2c1=O` [Compound 22, Methyl 3-(7-amino-4,5-dioxo-1,4,5,6-tetrahydropyrimido[4,5-c]pyridazin-3-yl)propanoate], on BaDHPS [1], the IC50 is 260000 nM and the inhibition at 250 µM came to 33%.
As for `Nc1nc2[nH]nc(CC(=O)O)c(=O)c2c(=O)[nH]1` [Compound 23, 2-(7-Amino-4,5-dioxo-1,4,5,6-tetrahydropyrimido[4,5-c]pyridazin-3-yl)acetic acid], at BaDHPS [1], 18000 nM corresponded to half-maximal inhibition (IC50) and the inhibition at 250 µM amounted to 91%. In addition, on BaDHPS [2], the SPR kd is 4.35(3) × 10^−2 s^−1 and the kon amounted to 419000 M⁻¹ s⁻¹. The compound also registered a Kd at BaDHPS [2] (SPR KD) of 104 nM. The same compound returned a Kd on BaDHPS [2] (SPR KD(eq)) of 110 nM.
For the compound `CC(CC(=O)O)c1n[nH]c2nc(N)[nH]c(=O)c2c1=O` (stereo not shown) [Compound 24, 3-(7-Amino-4,5-dioxo-1,4,5,6-tetrahydropyrimido[4,5-c]pyridazin-3-yl)butanoic acid], at BaDHPS [1], the midpoint of inhibition, the IC50, lay at 57000 nM and the inhibition at 250 µM came to 75.8%. For the same compound, at BaDHPS [3], the “ITC N (stoichiometry of the interaction)” value was found to be 0.8, the “ITC ΔG” value is -8.6 kcal/mol, the “ITC ΔH” value was -7.5 kcal/mol and the “ITC −TΔS” value was -1.1 kcal/mol. Also, at BaDHPS [2], the SPR kd is recorded as 3.39(1) × 10^−1 s^−1 and the kon was found to be 643000 M⁻¹ s⁻¹.
For the compound `Nc1nc2[nH]nc(CCC(=O)O)c(=O)c2c(=O)[nH]1` [Compound 25, 3-(7-Amino-4,5-dioxo-1,4,5,6-tetrahydropyrimido[4,5-c]pyridazin-3-yl)propanoic acid], at BaDHPS [1], half-maximal inhibition (IC50) required 36000 nM and the inhibition at 250 µM was found to be 91.8%. Moreover, at BaDHPS [3], the “ITC N (stoichiometry of the interaction)” value is 0.7, the “ITC ΔG” value is -8.94 kcal/mol, the “ITC ΔH” value was -10.4 kcal/mol and the “ITC −TΔS” value worked out at 1.46 kcal/mol. Moreover, on BaDHPS [2], the SPR kd is listed as 3.14(1) × 10^−1 s^−1 and the kon is 442000 M⁻¹ s⁻¹. Besides, the Kd on BaDHPS [2] (read-out: SPR KD) was determined as 710 nM. Also, on BaDHPS [2] (read-out: SPR KD(eq)), the Kd worked out at 713 nM.
